Source: PubChem BioAssay AID1963864 (Molecular Pharmacology Branch, DTP, NCI, 2024)
pIC50: −log10 of the molar value.

System: KRAS PDC multicell spheroid viability
Assay: Anticancer human tumor 521955-158-R6-J3-PDC patient-derived pancreatic carcinoma cell line growth inhibition [KRAS2]
Settings: for pIC50: curve of first compound; for viability, T/C: stronger effect = lower value
Outline: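 Combination screen of spheroid viability in tumor-cell co-cultures with endothelial (HUVEC) and mesenchymal stem cell stroma. Each agent was tested in half-log dilutions, topping at clinical Cmax or at 10 microM without a known Cmax.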

[1] = second compound 0.0316 µM, first compound 0.0316 µM
[2] = second compound 0.0316 µM, first compound 0.1 µM
[3] = second compound 0.1 µM, first compound 0.0316 µM
[4] = second compound 0.1 µM, first compound 0.1 µM
[5] = second compound 0.316 µM, first compound 0.0316 µM
[6] = second compound 0.316 µM, first compound 0.1 µM
[7] = second compound 1 µM, first compound 0.0316 µM
[8] = second compound 1 µM, first compound 0.1 µM
[9] = second compound 3.16 µM, first compound 0.0316 µM
[10] = second compound 3.16 µM, first compound 0.1 µM
[11] = second compound 0.0316 µM, first compound 0.316 µM
[12] = second compound 0.0316 µM, first compound 1 µM
[13] = second compound 0.0316 µM, first compound 3.16 µM
[14] = second compound 0.0316 µM, first compound 10 µM
[15] = second compound 0.1 µM, first compound 0.316 µM
[16] = second compound 0.1 µM, first compound 1 µM
[17] = second compound 0.1 µM, first compound 3.16 µM
[18] = second compound 0.1 µM, first compound 10 µM
[19] = second compound 0.316 µM, first compound 0.316 µM
[20] = second compound 0.316 µM, first compound 1 µM
[21] = second compound 0.316 µM, first compound 3.16 µM
[22] = second compound 0.316 µM, first compound 10 µM
[23] = second compound 1 µM, first compound 0.316 µM
[24] = second compound 1 µM, first compound 1 µM
[25] = second compound 1 µM, first compound 3.16 µM
[26] = second compound 1 µM, first compound 10 µM
[27] = second compound 3.16 µM, first compound 0.316 µM
[28] = second compound 3.16 µM, first compound 1 µM
[29] = second compound 3.16 µM, first compound 3.16 µM
[30] = second compound 3.16 µM, first compound 10 µM
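Further: drug exposure lasted seven days.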
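Wherever viability, T/C is given: 100% = DMSO vehicle wells and lower means fewer viable cells.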

| SMILES | pIC50 (second compound 0.0316 µM) | pIC50 (second compound 0.1 µM) | pIC50 (second compound 0.316 µM) | pIC50 (second compound 1 µM) | pIC50 (second compound 3.16 µM) | viability, T/C [1] [%] | viability, T/C [2] [%] | viability, T/C [3] [%] | viability, T/C [4] [%] | viability, T/C [5] [%] | viability, T/C [6] [%] | viability, T/C [7] [%] | viability, T/C [8] [%] | viability, T/C [9] [%] | viability, T/C [10] [%] | viability, T/C [11] [%] | viability, T/C [12] [%] | viability, T/C [13] [%] | viability, T/C [14] [%] | viability, T/C [15] [%] | further results |
| --- | --- | --- | --- | --- | --- | --- | --- | --- | --- | --- | --- | --- | --- | --- | --- | --- | --- | --- | --- | --- | --- |
| CC(C)n1nc(-c2ccc3oc(N)nc3c2)c2c(N)ncnc21 + C=CC(=O)N1CCN(c2nc(OCC3CCCN3C)nc3c2CCN(c2cccc4cccc(C)c24)C3)CC1CC#N | 7.16 | 7.17 | 7.14 | 7.06 | 8.46 | 63 | 44.8 | 59.8 | 44.2 | 60.3 | 45.9 | 61.2 | 47 | 39.6 | 21.8 | – | – | – | – | – | viability, T/C (second compound 0.0316 µM, first compound 0.000316 µM): 98%; viability, T/C (second compound 0.0316 µM, first compound 0.001 µM): 86.7%; viability, T/C (second compound 0.0316 µM, first compound 0.00316 µM): 85.4%; viability, T/C (second compound 0.0316 µM, first compound 0.01 µM): 62.3%; viability, T/C (second compound 0.1 µM, first compound 0.000316 µM): 90.8%; viability, T/C (second compound 0.1 µM, first compound 0.001 µM): 86.4%; viability, T/C (second compound 0.1 µM, first compound 0.00316 µM): 78.2%; viability, T/C (second compound 0.1 µM, first compound 0.01 µM): 77.6%; viability, T/C (second compound 0.316 µM, first compound 0.000316 µM): 94.2%; viability, T/C (second compound 0.316 µM, first compound 0.001 µM): 90.7%; viability, T/C (second compound 0.316 µM, first compound 0.00316 µM): 80.6%; viability, T/C (second compound 0.316 µM, first compound 0.01 µM): 74.4%; viability, T/C (second compound 1 µM, first compound 0.000316 µM): 81.8%; viability, T/C (second compound 1 µM, first compound 0.001 µM): 68.6%; viability, T/C (second compound 1 µM, first compound 0.00316 µM): 73.3%; viability, T/C (second compound 1 µM, first compound 0.01 µM): 54.2%; viability, T/C (second compound 3.16 µM, first compound 0.000316 µM): 60.7%; viability, T/C (second compound 3.16 µM, first compound 0.001 µM): 41.7%; viability, T/C (second compound 3.16 µM, first compound 0.00316 µM): 54.5%; viability, T/C (second compound 3.16 µM, first compound 0.01 µM): 8.94% |
| CC1(C)CCC(CN2CCN(c3ccc(C(=O)NS(=O)(=O)c4ccc(NCC5CCOCC5)c([N+](=O)[O-])c4)c(Oc4cnc5[nH]ccc5c4)c3)CC2)=C(c2ccc(Cl)cc2)C1 + C=CC(=O)N1CCN(c2nc(OCC3CCCN3C)nc3c2CCN(c2cccc4cccc(C)c24)C3)CC1CC#N | 5.41 | 5.35 | 5.57 | 5.72 | > 7.50 | 104 | 97.5 | 93.5 | 97.3 | 92 | 95.8 | 82.4 | 78.2 | 45.2 | 48.4 | 95.6 | 92.7 | 57.3 | 14.4 | 90.6 | viability, T/C [16]: 91.9%; viability, T/C [17]: 64.2%; viability, T/C [18]: 17%; viability, T/C [19]: 101%; viability, T/C [20]: 97.2%; viability, T/C [21]: 42.1%; viability, T/C [22]: 15.4%; viability, T/C [23]: 80.1%; viability, T/C [24]: 76.9%; viability, T/C [25]: 29.4%; viability, T/C [26]: 6.62%; viability, T/C [27]: 24.2%; viability, T/C [28]: 8.37%; viability, T/C [29]: 0.18%; viability, T/C [30]: 0.23% |
| COc1cc(Nc2ncc3c(n2)-c2ccc(Cl)cc2C(c2c(F)cccc2OC)=NC3)ccc1C(=O)O + C=CC(=O)N1CCN(c2nc(OCC3CCCN3C)nc3c2CCN(c2cccc4cccc(C)c24)C3)CC1CC#N | < 5.00 | < 5.00 | < 5.00 | < 5.00 | > 7.50 | 95.3 | 86.4 | 92.2 | 91 | 86.2 | 87.4 | 78 | 66 | 25.6 | 25.7 | 87.3 | 88.1 | 89.5 | 83.6 | 87.7 | viability, T/C [16]: 91%; viability, T/C [17]: 92%; viability, T/C [18]: 97.9%; viability, T/C [19]: 79.8%; viability, T/C [20]: 78.1%; viability, T/C [21]: 85.9%; viability, T/C [22]: 86.4%; viability, T/C [23]: 82.2%; viability, T/C [24]: 76.1%; viability, T/C [25]: 82.7%; viability, T/C [26]: 77.3%; viability, T/C [27]: 18.3%; viability, T/C [28]: 53.4%; viability, T/C [29]: 59.4%; viability, T/C [30]: 29.2% |
| COc1cc2nccc(Oc3ccc(NC(=O)C4(C(=O)Nc5ccc(F)cc5)CC4)cc3)c2cc1OC + C=CC(=O)N1CCN(c2nc(OCC3CCCN3C)nc3c2CCN(c2cccc4cccc(C)c24)C3)CC1CC#N | < 5.00 | < 5.00 | < 5.00 | < 5.00 | > 7.50 | 103 | 111 | 106 | 102 | 103 | 99.3 | 81.1 | 80.8 | 43.3 | 44 | 98.6 | 107 | 126 | 128 | 117 | viability, T/C [16]: 116%; viability, T/C [17]: 143%; viability, T/C [18]: 133%; viability, T/C [19]: 96.5%; viability, T/C [20]: 109%; viability, T/C [21]: 138%; viability, T/C [22]: 140%; viability, T/C [23]: 83.3%; viability, T/C [24]: 82.3%; viability, T/C [25]: 123%; viability, T/C [26]: 111%; viability, T/C [27]: 33.7%; viability, T/C [28]: 15.4%; viability, T/C [29]: 1.6%; viability, T/C [30]: 17.8% |
